Measurements taken from patent publication US8952024B2, “Herbicidal pyrimidone derivatives” (E I du Pont de Nemours and Company, priority 2009, dated 2015).

Experiments:
Assay in all cases: Test B pre-/postemergence plant response
Format in all cases: in vivo
[1] = test system: morningglory (Ipomoea coccinea)
Procedure, shortened: (§1)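 Compound in solvent + surfactant applied pre-em (loam/sand) or post-em (plants 2–18 cm, peat medium); greenhouse hold 13–15 days; visual 0–100 control score.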

[2] = test system: Italian ryegrass (Lolium multiflorum)
Procedure, shortened: as §1

[3] = test system: lambsquarters (Chenopodium album)
Procedure, shortened: as §1

[4] = test system: bermudagrass (Cynodon dactylon)
Procedure, shortened: as §1

[5] = test system: green foxtail (Setaria viridis)
Procedure, shortened: as §1

[6] = test system: yellow nutsedge (Cyperus esculentus)
Procedure, shortened: as §1

[7] = test system: blackgrass (Alopecurus myosuroides)
Procedure, shortened: as §1

[8] = test system: downy bromegrass (Bromus tectorum)
Procedure, shortened: as §1

[9] = test system: Surinam grass (Brachiaria decumbens)
Procedure, shortened: as §1

[10] = test system: corn (Zea mays)
Procedure, shortened: as §1

[11] = test system: woolly cupgrass (Eriochloa villosa)
Procedure, shortened: as §1

[12] = test system: giant foxtail (Setaria faberii)
Procedure, shortened: as §1

[13] = test system: large crabgrass (Digitaria sanguinalis)
Procedure, shortened: as §1

[14] = 31 g ai/ha, postemergence, scale 0 to 100, 0 is no effect, 100 is complete control
[15] = Postemergence, 62 g ai/ha, scale 0 (no effect) to 100 (complete control), 13 to 15 days
[16] = Postemergence, 125 g ai/ha, visual rating after 13 to 15 days, scale 0 (no effect) to 100 (complete control)
[17] = Postemergence, 250 g ai/ha, scale 0 to 100 (0 no effect, 100 complete control)
[18] = Preemergence, 31 g ai/ha, scale 0 to 100 (0 no effect, 100 complete control)
[19] = Preemergence, 62 g ai/ha, scale 0 to 100 (0 no effect, 100 complete control)
[20] = Preemergence, 125 g ai/ha, scale 0 to 100, 0 no effect, 100 complete control
[21] = 250 g ai/ha, Preemergence, 0 to 100 scale

`O=C1CCCC(O)=C1C(=O)c1cnc(-c2cccc(Cl)c2)n(-c2ccc(Cl)cc2)c1=O` [Compound 64] was tested, and the “Plant response rating, Morningglory” value [1, 14] was 80, the “Plant response rating, Morningglory” value [1, 15] was 80 and the “Plant response rating, Morningglory” value [1, 16] was 85. For the same molecule, the “Plant response rating, Morningglory” value [1, 17] was 90, the “Plant response rating, Morningglory” value [1, 18] was 0 and the “Plant response rating, Morningglory” value [1, 19] was 0. The “Plant response rating, Morningglory” value [1, 20] was 0, the “Plant response rating, Ryegrass, Italian” value [2, 14] was 0 and the “Plant response rating, Ryegrass, Italian” value [2, 15] was 0. For the same molecule, the “Plant response rating, Ryegrass, Italian” value [2, 16] was 0, the “Plant response rating, Ryegrass, Italian” value [2, 17] was 30 and the “Plant response rating, Ryegrass, Italian” value [2, 18] was 0. For the same molecule, the “Plant response rating, Ryegrass, Italian” value [2, 19] was 0, the “Plant response rating, Ryegrass, Italian” value [2, 20] was 0 and the “Plant response rating, Lambsquarters” value [3, 14] was 95. For the same molecule, the “Plant response rating, Lambsquarters” value [3, 21] was 98, the “Plant response rating, Lambsquarters” value [3, 15] was 100 and the “Plant response rating, Lambsquarters” value [3, 16] was 100. The “Plant response rating, Lambsquarters” value [3, 17] was 100, the “Plant response rating, Lambsquarters” value [3, 18] was 95 and the “Plant response rating, Lambsquarters” value [3, 19] was 98. For the same molecule, the “Plant response rating, Lambsquarters” value [3, 20] was 98, the “Plant response rating, Bermudagrass” value [4, 14] was 95 and the “Plant response rating, Bermudagrass” value [4, 21] was 98. The “Plant response rating, Bermudagrass” value [4, 15] was 95, the “Plant response rating, Bermudagrass” value [4, 16] was 98 and the “Plant response rating, Bermudagrass” value [4, 17] was 98. For the same molecule, the “Plant response rating, Bermudagrass” value [4, 18] was 50, the “Plant response rating, Bermudagrass” value [4, 19] was 85 and the “Plant response rating, Bermudagrass” value [4, 20] was 98. The “Plant response rating, Foxtail, Green” value [5, 14] was 70, the “Plant response rating, Foxtail, Green” value [5, 21] was 50 and the “Plant response rating, Foxtail, Green” value [5, 15] was 85. For the same molecule, the “Plant response rating, Foxtail, Green” value [5, 16] was 100, the “Plant response rating, Foxtail, Green” value [5, 17] was 100 and the “Plant response rating, Foxtail, Green” value [5, 18] was 0. The “Plant response rating, Foxtail, Green” value [5, 19] was 0, the “Plant response rating, Foxtail, Green” value [5, 20] was 0 and the “Plant response rating, Nutsedge, Yellow” value [6, 14] was 0. For the same molecule, the “Plant response rating, Nutsedge, Yellow” value [6, 15] was 10, the “Plant response rating, Nutsedge, Yellow” value [6, 16] was 10 and the “Plant response rating, Nutsedge, Yellow” value [6, 17] was 25. For the same molecule, the “Plant response rating, Nutsedge, Yellow” value [6, 18] was 0, the “Plant response rating, Nutsedge, Yellow” value [6, 19] was 0 and the “Plant response rating, Nutsedge, Yellow” value [6, 20] was 0. The “Plant response rating, Blackgrass” value [7, 14] was 0, the “Plant response rating, Blackgrass” value [7, 21] was 0 and the “Plant response rating, Blackgrass” value [7, 15] was 0. The “Plant response rating, Blackgrass” value [7, 16] was 5, the “Plant response rating, Blackgrass” value [7, 17] was 15 and the “Plant response rating, Blackgrass” value [7, 18] was 0. For the same molecule, the “Plant response rating, Blackgrass” value [7, 19] was 0, the “Plant response rating, Blackgrass” value [7, 20] was 0 and the “Plant response rating, Bromegrass, Downy” value [8, 14] was 25. For the same molecule, the “Plant response rating, Bromegrass, Downy” value [8, 21] was 0, the “Plant response rating, Bromegrass, Downy” value [8, 15] was 45 and the “Plant response rating, Bromegrass, Downy” value [8, 16] was 60. For the same molecule, the “Plant response rating, Bromegrass, Downy” value [8, 17] was 85, the “Plant response rating, Bromegrass, Downy” value [8, 18] was 0 and the “Plant response rating, Bromegrass, Downy” value [8, 19] was 0. The “Plant response rating, Bromegrass, Downy” value [8, 20] was 0, the “Plant response rating, Surinam Grass” value [9, 14] was 85 and the “Plant response rating, Surinam Grass” value [9, 15] was 95. The “Plant response rating, Surinam Grass” value [9, 16] was 98, the “Plant response rating, Surinam Grass” value [9, 17] was 98 and the “Plant response rating, Surinam Grass” value [9, 18] was 0. For the same molecule, the “Plant response rating, Surinam Grass” value [9, 19] was 85, the “Plant response rating, Surinam Grass” value [9, 20] was 85 and the “Plant response rating, Corn” value [10, 14] was 80. For the same molecule, the “Plant response rating, Corn” value [10, 21] was 0, the “Plant response rating, Corn” value [10, 15] was 85 and the “Plant response rating, Corn” value [10, 16] was 85. For the same molecule, the “Plant response rating, Corn” value [10, 17] was 90, the “Plant response rating, Corn” value [10, 18] was 0 and the “Plant response rating, Corn” value [10, 19] was 0. The “Plant response rating, Corn” value [10, 20] was 0, the “Plant response rating, Cupgrass, Woolly” value [11, 14] was 75 and the “Plant response rating, Cupgrass, Woolly” value [11, 21] was 10. For the same molecule, the “Plant response rating, Cupgrass, Woolly” value [11, 15] was 95, the “Plant response rating, Cupgrass, Woolly” value [11, 16] was 98 and the “Plant response rating, Cupgrass, Woolly” value [11, 17] was 98. The “Plant response rating, Cupgrass, Woolly” value [11, 18] was 0, the “Plant response rating, Cupgrass, Woolly” value [11, 19] was 0 and the “Plant response rating, Cupgrass, Woolly” value [11, 20] was 0. The “Plant response rating, Foxtail, Giant” value [12, 14] was 90, the “Plant response rating, Foxtail, Giant” value [12, 21] was 65 and the “Plant response rating, Foxtail, Giant” value [12, 15] was 95. The “Plant response rating, Foxtail, Giant” value [12, 16] was 98, the “Plant response rating, Foxtail, Giant” value [12, 17] was 100 and the “Plant response rating, Foxtail, Giant” value [12, 18] was 20. For the same molecule, the “Plant response rating, Foxtail, Giant” value [12, 19] was 25, the “Plant response rating, Foxtail, Giant” value [12, 20] was 35 and the “Plant response rating, Crabgrass, Large” value [13, 14] was 85. For the same molecule, the “Plant response rating, Crabgrass, Large” value [13, 21] was 98, the “Plant response rating, Crabgrass, Large” value [13, 15] was 90 and the “Plant response rating, Crabgrass, Large” value [13, 16] was 98. For the same molecule, the “Plant response rating, Crabgrass, Large” value [13, 17] was 98, the “Plant response rating, Crabgrass, Large” value [13, 18] was 50 and the “Plant response rating, Crabgrass, Large” value [13, 19] was 75. For the same molecule, the “Plant response rating, Crabgrass, Large” value [13, 20] was 98.
